Experimental data published in article PMC12430133, “GABAergic and α-Glucosidase-Inhibitory Potentials of Fractions and Isolated Xanthones from Hypericum revolutum Vahl subsp. revolutum” (Molecules, 2025).

Legend:
α-glucosidase = test: In vitro α-glucosidase-inhibitory assay; type: biochemical
Method: The alpha-glucosidase-inhibitory potency of the fractions was assessed by determining whether the fractions can inhibit the activity of α-glucosidase, a carbohydrate-digesting enzyme. The fractions were tested at a concentration of 60 µg/mL.
A previous method [66] was adopted to perform the glucosidase inhibition assay. It was performed on a 96-well transparent plate. […] Next, 50 µL of 10 mM 4-nitrophenyl-β-D-glucopyranoside substrate solution (dissolved in 100 mM phosphate buffer, pH 6.8) was added, and incubation continued for an additional 20 min under the same incubation conditions. After incubation, the enzyme-substrate reaction was stopped by adding 100 µL of a 0.1 M Na2CO3 solution, and absorbance was measured at 405 nm. The absorbances were blanked using the sample and solvent blanks. The enzyme inhibition activity of the samples was computed using the formula below: Enzyme inhibition activity%=Absorbance of control−Absorbance of test/Absorbance of control×100

[1] = target: T1, GABAA receptor subtype (α1, β2, and γ2S subunits) (Homo sapiens, UniProt P14867+P18507+P47870); test: Functional GABAA receptor assay: modulation of GABA-induced chloride currents (IGABA), two-microelectrode voltage clamp in Xenopus laevis oocytes; type: cell-based; conditions: 100 µg/mL, isolated compounds; for IGABA potentiation: GABA EC10, mean ± S.E.M
T1 construct: expressed in transfected cells; host or cells: Xenopus laevis oocytes (Ecocyte), cRNA-injected
T1 sequence (P14867 28-456): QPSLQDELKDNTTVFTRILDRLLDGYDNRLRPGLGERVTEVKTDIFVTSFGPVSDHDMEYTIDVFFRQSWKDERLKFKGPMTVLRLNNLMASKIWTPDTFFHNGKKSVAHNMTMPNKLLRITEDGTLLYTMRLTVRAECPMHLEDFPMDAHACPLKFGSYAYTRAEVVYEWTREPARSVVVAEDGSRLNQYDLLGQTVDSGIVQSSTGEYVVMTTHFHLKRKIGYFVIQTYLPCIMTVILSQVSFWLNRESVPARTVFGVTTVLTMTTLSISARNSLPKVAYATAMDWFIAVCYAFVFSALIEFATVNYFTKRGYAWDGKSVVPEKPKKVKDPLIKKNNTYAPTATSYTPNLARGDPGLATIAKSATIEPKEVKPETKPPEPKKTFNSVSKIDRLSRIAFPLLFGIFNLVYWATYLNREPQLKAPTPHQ
T1 sequence (P47870 25-512 limits assumed): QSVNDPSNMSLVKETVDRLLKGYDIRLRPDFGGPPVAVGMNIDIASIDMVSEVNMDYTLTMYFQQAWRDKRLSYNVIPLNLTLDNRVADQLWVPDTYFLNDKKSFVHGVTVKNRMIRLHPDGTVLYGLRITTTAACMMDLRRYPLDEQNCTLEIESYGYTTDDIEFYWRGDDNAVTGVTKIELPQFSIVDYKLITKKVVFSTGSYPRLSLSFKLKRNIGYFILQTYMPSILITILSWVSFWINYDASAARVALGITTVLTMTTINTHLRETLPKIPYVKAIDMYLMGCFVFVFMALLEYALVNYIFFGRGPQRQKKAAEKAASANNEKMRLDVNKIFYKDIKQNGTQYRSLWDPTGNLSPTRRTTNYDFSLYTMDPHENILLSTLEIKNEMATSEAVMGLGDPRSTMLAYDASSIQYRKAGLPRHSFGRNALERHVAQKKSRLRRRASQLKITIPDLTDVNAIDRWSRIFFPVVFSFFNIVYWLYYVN
T1 sequence (P18507 40-467 isoform P18507-1 limits assumed): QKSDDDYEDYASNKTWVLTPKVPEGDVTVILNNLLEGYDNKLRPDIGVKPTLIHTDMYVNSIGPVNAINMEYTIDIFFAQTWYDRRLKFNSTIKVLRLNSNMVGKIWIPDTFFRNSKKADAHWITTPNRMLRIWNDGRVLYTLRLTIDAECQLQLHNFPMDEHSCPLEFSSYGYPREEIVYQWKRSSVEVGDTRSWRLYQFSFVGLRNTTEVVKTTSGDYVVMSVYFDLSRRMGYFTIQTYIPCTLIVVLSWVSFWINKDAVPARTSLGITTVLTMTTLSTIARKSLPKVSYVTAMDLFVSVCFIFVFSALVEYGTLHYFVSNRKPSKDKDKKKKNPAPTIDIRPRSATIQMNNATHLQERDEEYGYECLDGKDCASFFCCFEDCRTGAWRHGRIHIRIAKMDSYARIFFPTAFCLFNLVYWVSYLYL
Method: The effects of both fractions and isolated compounds from the PS and PL extracts were determined on GABA-induced chloride currents through the predominantly occurring GABAA receptor subtype (comprising α1, β2, and γ2S subunits). GABAA receptors were heterologously expressed in Xenopus laevis (Grade I–II) oocytes as described previously. The fractions and compounds were tested at a concentration of 100 µg/mL. For the fractions, a 100 µg/mL concentration was used in assessing their IGABA modulatory potential because previous studies have also used the same concentration to assess the IGABA modulatory potential of plant extracts and/or fractions in a similar experimental model. For the compounds, we tested their IGABA modulatory potential at 100 µg/mL to maintain a consistent concentration as the fractions, which provides a comparative perspective about the efficacy of the compounds relative to the fractions.
In brief, defolliculated oocytes were obtained from Ecocyte (Dortmund, Germany) and injected with 50–75 nL of nuclease-free water containing a mixture (ratio 1:1:10) of cRNAs encoding for the major GABAA receptor subtype (α1, β2, and γ2S; concentrations ranging between 100 and 2000 ng/μL/subunit) using a Nanoject III microinjector (Drummond Scientific Company, Broomall, PA, USA). Oocytes were stored at 18 °C in ND96 solution composed of 90 mM NaCl, 1 mM KCl, 1 mM MgCl2·6H2O, 1 mM CaCl2, and 5 mM 2-(4-(2-hydroxyethyl)-1-piperazinyl)ethanesulfonic acid (HEPES), with pH adjusted to 7.4 using 1 M NaOH and supplemented with 100 U/mL penicillin and 10 µg/mL streptomycin. Functional characterisation was then carried out 1–3 days post-injection using two-microelectrode voltage-clamp (TEVC) recordings holding oocytes at −70 mV using a TURBO TEC 03C amplifier (NPI Electronic, Tamm, Germany) connected to an Axon Digidata 1440A digitiser (Molecular Devices, Sunnyvale, CA, USA). Data acquisition was performed using pCLAMP software version 10.3 (Molecular Devices), and current traces were analysed offline. Microelectrodes were filled with 2 M KCl and had resistances between 1 and 3 MΩ. GABA and test compounds were applied using a TECAN Miniprep 60 (npi electronic, Tamm, Germany), permitting semi-automation of the experiments coupled to a fast perfusion system. The oocyte-containing chamber was perfused with 200 µL GABA-containing solutions at a volume rate between 150 and 200 µL/s to elicit chloride currents through GABAA receptors (IGABA). Modulation of IGABA by the compounds was measured at a GABA concentration eliciting 10% of the maximal current amplitude (EC10), peak amplitudes were measured, and the effect was calculated using the following formula: IGABA potentiation%=Amplitude IGABA−sample−Amplitude IGABA−control/Amplitude IGABA−control×100
IGABA+Sample is the current induced by co-application of GABA and the tested sample, while IGABA−control is the current induced by application of GABA alone.

| SMILES | IC50 (α-glucosidase; dose-dependent assay 1.5625–100 µM, isolated compound and acarbose, read-out: α-glucosidase inhibition IC50) | IGABA potentiation [1] | Effect on IGABA (in words) [1] | Glucosidase-Inhibitory Activity (%) (α-glucosidase; tested at 60 μg/mL, fractions from MeOH extract of PS (plant stem) and acarbose, NAD = no activity detected) |
| --- | --- | --- | --- | --- |
| COc1cc([C@@H]2Oc3c(OC)cc4c(=O)c5ccccc5oc4c3O[C@H]2CO)ccc1O (relative stereo) [Compound 3, trans-3-(4-hydroxy-3-methoxyphenyl)-2-(hydroxymethyl)-5-methoxy-2,3-dihydro-7H-[1,4]dioxino[2,3-c]xanthen-7-one] | 45.1 µM | 5 ± 7% | inactive | – |
| C[C@H]1O[C@H](O[C@H]2[C@H](O)[C@@H](O)[C@@H](O[C@H]3[C@H](O)[C@@H](O)C(O)O[C@@H]3CO)O[C@@H]2CO)[C@H](O)[C@@H](O)[C@@H]1N[C@H]1C=C(CO)[C@@H](O)[C@H](O)[C@H]1O (some centres unmarked) [Acarbose, acarbose, reference compound] | – | – | – | 94.3 ± 1.86% |
| COc1cc2c(=O)c3ccccc3oc2c(O)c1OC [Compound 1, 4-hydroxy-2,3-dimethoxy-9H-xanthen-9-one] | – | 65 ± 13% | significantly enhanced IGABA | – |
| COc1cc2c(=O)c3ccccc3oc2c(OC)c1O [Compound 2, 3-hydroxy-2,4-dimethoxy-9H-xanthen-9-one] | – | 36 ± 9% | significantly enhanced IGABA | – |
